Data set [1] can be described thus: Safety assessment in the vehicle-controlled MC study (N=323). The format is in vivo, human (children aged 2 to 12 years). The method, then:
(§1) More particularly, the objective is to evaluate the efficacy of imiquimod cream, 5% (imiquimod) for the treatment of molluscum contagiosum (MC) lesions in pediatric subjects when the cream was applied 3 times per week (3×/wk) for up to 16 weeks. The efficacy of imiquimod is evaluated by assessing MC lesion clearance. The primary efficacy parameter is complete clearance of all MC lesions (complete clinical resolution) from treatment initiation to the week 18/efficacy visit. Secondary efficacy parameters include partial clearance, defined as ≧50% reduction from the baseline lesion count, and the change in total lesion count. Time to complete clearance is also compared between treatment groups. The secondary objective is to evaluate the safety of imiquimod. Safety assessments are conducted throughout the study. Safety was assessed through incidence and severity of adverse events (AEs); local skin reactions (LSRs) of erythema, edema, erosion/ulceration, weeping/exudates, scabbing/crusting, and flaking/scaling/dryness; skin quality assessments; vital signs measurements; general physical examinations; hematology laboratory tests; and concomitant medication use.
This is a randomized, vehicle-controlled, double-blind, parallel group, study that is conducted in children aged 2 to 12 years of age who had ≧2 clinically verified MC lesions. Enrollment is monitored to ensure at least 50% of subjects had at least 5 MC lesions, at least 50% of subjects are under 6 years of age, and a sufficient number of subjects enrolled with periocular lesions. Subjects are randomized 2:1 (imiquimod: vehicle) and apply study cream 3×/wk for up to 16 weeks (or until complete resolution of all MC lesions) to all target MC lesions. […] At the screening/treatment initiation visit, MC lesions and application area locations are recorded on a body diagram. […] At each study visit, MC lesions are counted and recorded, and safety procedures are performed. […] MC lesions are treated 3×/wk for up to 16 weeks, or until determined that all MC lesions are cleared. […]

Data set [2] concerns molluscum contagiosum (MC) lesions. Nature of the data set: Study 1: randomized, vehicle-controlled, double-blind trial in pediatric subjects with molluscum contagiosum, efficacy. The format is in vivo, human (pediatric subjects). The method, then:
Aldara® Cream, commercially available via prescription and manufactured by 3M Health Care Limited, Loughborough LE11 1EP England, and distributed by Graceway Pharmaceuticals, LLC, Bristol, Tenn. 37620, is evaluated in two randomized, vehicle-controlled, double-blind trials involving 702 pediatric subjects with molluscum contagiosum (MC) (470 are exposed to Aldara; median age 5 years, range 2-12 years). Subjects apply Aldara® Cream or vehicle 3 times weekly for up to 16 weeks. Complete clearance (no MC lesions) is assessed at Week 18. […] Similar to the studies conducted in adults, the most frequently reported adverse reaction from 2 studies in children with molluscum contagiosum is application site reaction. Adverse events which occur more frequently in Aldara®-treated subjects as compared with vehicle-treated subjects generally resemble those seen in studies in indications approved for adults and also included otitis media (5% Aldara vs. 3% vehicle) and conjunctivitis (3% Aldara® vs. 2% vehicle). Erythema is the most frequently reported local skin reaction. The severe local skin reactions that are reported by Aidara®-treated subjects in the pediatric studies include erythema (28%), edema (8%), scabbing/crusting (5%), flaking/scaling (5%), erosion (2%) and weeping/exudate (2%).
as §1
This is a randomized, vehicle-controlled, double-blind, parallel group, study that is conducted in children aged 2 to 12 years of age who had ≧2 clinically verified MC lesions. Enrollment is monitored to ensure at least 50% of subjects had at least 5 MC lesions, at least 50% of subjects are under 6 years of age, and a sufficient number of subjects enrolled with periocular lesions. Subjects are randomized 2:1 (imiquimod: vehicle) and apply study cream 3×/wk for up to 16 weeks (or until complete resolution of all MC lesions) to all target MC lesions. Subjects who weigh <25 kg apply up to 2 sachets of study cream, while subjects who weigh ≧25 kg apply up to 3 sachets. At the screening/treatment initiation visit, MC lesions and application area locations are recorded on a body diagram. […] At each study visit, MC lesions are counted and recorded, and safety procedures are performed. […]

Data set [3] in a line: Systemic absorption of imiquimod across affected skin of 22 subjects with extensive MC (serum levels, hematology). The data set is classed as in vivo, human (subjects aged 2 to 12 years). The procedure:
Systemic absorption of imiquimod across the affected skin of 22 subjects aged 2 to 12 years with extensive MC involving at least 10% of the total body surface area is observed after single and multiple doses at a dosing frequency of 3 applications per week for 4 weeks. The investigator determines the dose applied, i.e., either 1, 2 or 3 packets per dose, based on the size of the treatment area and the subject's weight. […] Children aged 2-5 years receive doses of 12.5 mg (one packet) or 25 mg (two packets) of imiquimod and have median multiple-dose peak serum drug levels of approximately 0.2 or 0.5 ng/ml, respectively. Children aged 6-12 years receive doses of 12.5 mg, 25 mg, or 37.5 mg (three packets) and have median multiple dose serum drug levels of approximately 0.1, 0.15, or 0.3 ng/ml, respectively. Among the 20 subjects with evaluable laboratory assessments, the median WBC count decreases by 1.4*10^9/L and the median absolute neutrophil count decreases by 1.42*10^9/L.

The mark [4] stands for this setting: 20 subjects with evaluable laboratory assessments.

The Cmax is the maximum level reached in the sampled fluid or tissue.

As for `CC(C)Cn1cnc2c(N)nc3ccccc3c21` [imiquimod, 1-isobutyl-1H-imidazo[4,5-c]-quinolin-4-amine], the overall safety conclusion entry in data set [1] (children ages 2 to 12 with MC, dosed 3×/wk for up to 16 weeks) is recorded as “safe”. The “subjects discontinued from the treatment period due to AEs” value in data set [1] (none severe in intensity, vehicle 1) is 2 subjects. The “subjects reporting at least 1 AE considered possibly or probably related to study drug” value in data set [1] (vehicle 19.8%, p=0.013) is given as 33.6%. Moreover, the “partial clearance rate (≧50% reduction from baseline lesion count) at week 18” value in data set [2] (ITT, 108/217, vehicle 45.3%, p=0.4416) is listed as 49.8%. The “complete clearance rate (no MC lesions) at Week 18” value in data set [2] (Study 1, ITT, 52/217, cream applied 3 times weekly for up to 16 weeks, vehicle 26% (28/106)) stood at 24.0%. In addition, the “efficacy versus vehicle cream with respect to complete and partial clearance of MC lesions” value in data set [2] (dosed 3×/wk for up to 16 weeks) is given as “not statistically significantly more effective than vehicle cream”. In addition, the “distribution in time to complete clearance versus vehicle” value in data set [2] (generalized Wilcoxon Test, p=0.7830) is recorded as “not significantly different”. Further, in data set [2] (vehicle 37.3%), the “median percent reduction in MC lesions at week 18” value is listed as 48.1%. Moreover, in data set [3] (setting [4]), the “decrease in median WBC count” value was found to be 1.4e+09 L⁻¹ and the “decrease in median absolute neutrophil count” value turned out to be 1.42e+09 L⁻¹. Also, in data set [3] (children aged 2-5 years, 12.5 mg (one packet)), the “median multiple-dose peak serum drug level” value was “approximately 0.2 ng/ml”. Also, the “peak serum imiquimod concentrations following both single and multiple doses” value in data set [3] (children, topical imiquimod (summary statement)) was less than 2 ng/mL. Besides, the peak concentration (Cmax) in data set [3] (human, in vivo, 25 mg, single person, 2 packets of study drug per dose, read-out: Cmax after multiple dosing) stood at 9.66 ng/mL. For the same molecule, in data set [3] (summary statement), the “median WBC count decreased by” value is on record as “about 1.4 *109/L” and the “median absolute neutrophil count decreased by” value was “about 1.42 *109/L”.
